{"source": "patent US8501431B2", "about": "“Method for screening for compounds selectively interacting with RAD9” (Magnachem International Laboratories, Inc., priority 2008, dated 2013)", "system": "mutant strains of Saccharomyces cereviseae (gene rad9)", "experiment": "Bioassay on solid mediums with Securolide on mutant strains of Saccharomyces cereviseae", "assay_type": "cell-based", "details": "concentration between ten and one hundred micrograms/milliliter, set of mutant strains, specifically the gene rad9", "protocol": "Bioassays on solid mediums were performed with Securolide (LMSV-6) in a concentration between ten and one hundred micrograms/milliliter on a set of mutant strains of Saccharomyces cereviseae with DNA similar to that in tumor/cancer cells.", "note": "Entries after “also recorded” stand apart in the source; their conditions may differ.", "data": [{"molecule": "C=C1CCOC1=O", "note": "[Securolide]", "values": [{"measurement": "cytoxic activity", "value": "cell death of Rad9 mutant yeast strains; also recorded: marked cytoxic activity only on the mutant strains"}]}]}
